Where two headings read alike, the source gives them in different places.
What was measured:
5-LOX [1] = molecular target: T1, 5-LOX (Rattus norvegicus, UniProt P12527); assay: Inhibition of 5-LOX product synthesis; type: cell-based; details: for inhibition at 5 µM: PMNL, read-out: Inhibition at 5 μmol/L (%); for IC50: rat peritoneal polymorphonuclear leukocytes; for Inhibition at 5 μmol/L (%): rat PMNLs, mean of three determinations
T1 sequence (P12527 1-673): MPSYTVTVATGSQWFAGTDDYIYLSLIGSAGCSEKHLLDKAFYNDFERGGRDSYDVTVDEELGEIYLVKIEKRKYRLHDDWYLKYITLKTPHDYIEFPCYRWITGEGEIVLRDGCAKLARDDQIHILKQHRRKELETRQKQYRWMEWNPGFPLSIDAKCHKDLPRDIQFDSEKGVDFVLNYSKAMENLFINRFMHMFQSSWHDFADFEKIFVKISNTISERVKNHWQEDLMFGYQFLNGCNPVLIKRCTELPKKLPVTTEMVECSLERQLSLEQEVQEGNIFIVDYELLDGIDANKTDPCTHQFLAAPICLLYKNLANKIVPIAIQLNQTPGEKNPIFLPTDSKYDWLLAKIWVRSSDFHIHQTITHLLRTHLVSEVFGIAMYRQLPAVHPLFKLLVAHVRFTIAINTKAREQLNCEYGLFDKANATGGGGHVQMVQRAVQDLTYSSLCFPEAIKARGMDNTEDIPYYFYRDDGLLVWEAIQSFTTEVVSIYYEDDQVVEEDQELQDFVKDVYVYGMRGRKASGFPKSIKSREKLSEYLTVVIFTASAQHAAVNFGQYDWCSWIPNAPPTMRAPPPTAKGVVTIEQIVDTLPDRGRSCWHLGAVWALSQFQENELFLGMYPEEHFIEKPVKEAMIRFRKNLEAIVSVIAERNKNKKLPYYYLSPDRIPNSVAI

5-LOX [2] = molecular target: T2, 5-LOX (Homo sapiens, UniProt P09917); assay: Cell-free 5-LOX enzymatic assay; type: biochemical
T2 sequence (P09917 1-674): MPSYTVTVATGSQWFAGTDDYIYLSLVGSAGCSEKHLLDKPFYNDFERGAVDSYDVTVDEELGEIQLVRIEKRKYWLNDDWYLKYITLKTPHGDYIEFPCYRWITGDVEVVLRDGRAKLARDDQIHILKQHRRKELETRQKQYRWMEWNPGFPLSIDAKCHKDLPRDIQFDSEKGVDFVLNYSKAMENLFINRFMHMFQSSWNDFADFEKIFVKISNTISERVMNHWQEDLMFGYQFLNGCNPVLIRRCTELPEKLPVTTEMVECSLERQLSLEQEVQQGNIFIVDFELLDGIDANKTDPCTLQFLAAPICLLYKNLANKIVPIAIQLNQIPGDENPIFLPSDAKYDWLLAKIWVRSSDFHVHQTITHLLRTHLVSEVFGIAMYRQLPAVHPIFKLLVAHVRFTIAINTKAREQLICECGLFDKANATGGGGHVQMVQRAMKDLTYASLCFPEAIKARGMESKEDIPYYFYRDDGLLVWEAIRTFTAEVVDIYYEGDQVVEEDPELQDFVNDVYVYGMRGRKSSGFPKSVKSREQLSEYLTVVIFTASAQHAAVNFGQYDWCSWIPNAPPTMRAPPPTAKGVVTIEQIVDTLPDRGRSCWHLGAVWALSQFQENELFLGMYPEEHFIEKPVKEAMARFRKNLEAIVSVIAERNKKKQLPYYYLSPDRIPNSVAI

5-LOX [3] = molecular target: T2, 5-LOX; assay: Inhibition of 5-LOX product synthesis; type: cell-based

SMILES | inhibition at 5 µM (5-LOX [1]) [%] | IC50 (5-LOX [3]) [nM] | IC50 (5-LOX [1]; IC50 PMNL) [nM] | also measured
Cc1ccc(-c2cc(C(=O)Nc3cc(C(C)(C)C)c(O)c(C(C)(C)C)c3)nn2-c2ccc(S(C)(=O)=O)cc2)cc1 [5b, N-(3,5-di-tert-butyl-4-hydroxyphenyl)-1-(4-methylsulfonylphenyl)-5-p-tolyl-1H-pyrazole-3-carboxamide] | 62.8 |  |  | 
CC(C)(C)c1cc(NC(=O)c2cc(-c3ccc4ccccc4c3)n(-c3ccc(S(C)(=O)=O)cc3)n2)cc(C(C)(C)C)c1O [5g, N-(3,5-di-tert-butyl-4-hydroxyphenyl)-1-(4-methylsulfonylphenyl)-5-naphth-2-yl-1H-pyrazole-3-carboxamide] | 51.7 |  |  | 
Cc1ccc(-c2cc(C(=O)Nc3cc(C(C)(C)C)c(O)c(C(C)(C)C)c3)nn2-c2ccc(S(N)(=O)=O)cc2)cc1 [4b, N-(3,5-di-tert-butyl-4-hydroxyphenyl)-1-(4-aminosulfonylphenyl)-5-p-tolyl-1H-pyrazole-3-carboxamide] | 65.7 |  |  | 
CC(C)(C)c1cc(NC(=O)c2cc(-c3ccccc3)n(-c3ccc(S(N)(=O)=O)cc3)n2)cc(C(C)(C)C)c1O [4a, N-(3,5-di-tert-butyl-4-hydroxyphenyl)-1-(4-aminosulfonyl-phenyl)-5-phenyl-1H-pyrazole-3-carboxamide] | 55.7 |  |  | 
COc1ccc(-c2cc(C(=O)Nc3cc(C(C)(C)C)c(O)c(C(C)(C)C)c3)nn2-c2ccc(S(N)(=O)=O)cc2)cc1 [4c, N-(3,5-di-tert-butyl-4-hydroxyphenyl)-1-(4-aminosulfonylphenyl)-5-p-meth-oxyphenyl-1H-pyrazole-3-carboxamide] | 74.9 | 4870 | 450 | IC50 (5-LOX [2]): 136 ± 15 nM
CC(C)(C)c1cc(NC(=O)c2cc(-c3ccc(C(F)(F)F)cc3)n(-c3ccc(S(N)(=O)=O)cc3)n2)cc(C(C)(C)C)c1O [4i, N-(3,5-di-tert-butyl-4-hydroxyphenyl)-1-(4-aminosulfonylphenyl)-5-p-trifluoromethylphenyl-1H-pyrazole-3-carboxamide] |  |  |  | Inhibition at 5 μmol/L (%) (5-LOX [1]): 61.9%
CC(C)(C)c1cc(NC(=O)c2cc(-c3ccc(Br)s3)n(-c3ccc(S(N)(=O)=O)cc3)n2)cc(C(C)(C)C)c1O [4k, N-(3,5-di-tert-butyl-4-hydroxyphenyl)-1-(4-aminosulfonylphenyl)-5-(5-bromothiophen-2-yl)-1H-pyrazole-3-carboxamide] | 74.5 | 5830 | 900 | IC50 (5-LOX [2]): 159 ± 16 nM
CC(C)(C)c1cc(NC(=O)c2cc(-c3ccccc3)n(-c3ccc(S(C)(=O)=O)cc3)n2)cc(C(C)(C)C)c1O [5a, N-(3,5-di-tert-butyl-4-hydroxyphenyl)-1-(4-methylsulfonylphenyl)-5-phenyl-1H-pyrazole-3-carboxamide] | 41.9 |  |  | 
CC(C)(C)c1cc(NC(=O)c2cc(-c3ccc4c(c3)OCCO4)n(-c3ccc(S(N)(=O)=O)cc3)n2)cc(C(C)(C)C)c1O [4f, N-(3,5-di-tert-butyl-4-hydroxyphenyl)-5-(2,3-dihydrobenzo [1, 4]dioxin-7-yl)-1-(4-aminosulfonylphenyl)-1H-pyrazole-3-carboxamide] | 50.7 |  |  | 
CC(C)(C)c1cc(NC(=O)c2cc(-c3ccccc3)n(-c3ccc(F)cc3)n2)cc(C(C)(C)C)c1O [6a, N-(3,5-di-tert-butyl-4-hydroxyphenyl)-1-(4-fluorophenyl)-5-phenyl-1H-pyrazole-3-carboxamide] | 56.8 |  |  | 
CC(C)(C)c1cc(NC(=O)c2cc(-c3ccc4c(c3)OCCO4)n(-c3ccc(S(C)(=O)=O)cc3)n2)cc(C(C)(C)C)c1O [5f, N-(3,5-di-tert-butyl-4-hydroxyphenyl)-5-(2,3-dihydrobenzo [1, 4]dioxin-7-yl)-1-(4-methylsulfonylphenyl)-1H-pyrazole-3-carboxamide] | 70.3 | 4650 | 810 | IC50 (5-LOX [2]): 273 ± 21 nM
CC(C)Cc1ccc(-c2cc(C(=O)Nc3cc(C(C)(C)C)c(O)c(C(C)(C)C)c3)nn2-c2ccc(S(N)(=O)=O)cc2)cc1 [4d, N-(3,5-di-tert-butyl-4-hydroxyphenyl)-1-(4-aminosulfonylphenyl)-5-p-iso-butylphenyl-1H-pyrazole-3-carboxamide] | 59 |  |  | 
COc1ccc(-c2cc(C(=O)Nc3cc(C(C)(C)C)c(O)c(C(C)(C)C)c3)nn2-c2ccc(S(C)(=O)=O)cc2)cc1 [5c, N-(3,5-di-tert-butyl-4-hydroxyphenyl)-1-(4-methylsulfonylphenyl)-5-p-methoxyphenyl-1H-pyrazole-3-carboxamide] | 35.6 |  |  | 
CC(C)(C)c1cc(NC(=O)c2cc(-c3ccc(F)cc3)n(-c3ccc(S(N)(=O)=O)cc3)n2)cc(C(C)(C)C)c1O [4h, N-(3,5-di-tert-butyl-4-hydroxyphenyl)-1-(4-aminosulfonylphenyl)-5-p-fluorophenyl-1H-pyrazole-3-carboxamide] | 39.3 |  |  | 
CC(C)(C)c1cc(NC(=O)c2cc(-c3ccc(C(F)(F)F)cc3)n(-c3ccc(S(C)(=O)=O)cc3)n2)cc(C(C)(C)C)c1O [5i, N-(3,5-di-tert-butyl-4-hydroxyphenyl)-1-(4-methylsulfonylphenyl)-5-p-tri-fluoromethylphenyl-1H-pyrazole-3-carboxamide] |  |  |  | IC50 (5-LOX [2]; read-out: IC50 Enzymatic assay, cell-free, human 5-LOX, triplicate): 127 ± 29 nM; IC50 (5-LOX [3]; read-out: IC50 HWB, human whole blood): 1130 nM; Inhibition at 5 μmol/L (%) (5-LOX [1]): 69.6%; IC50 (5-LOX [1]; read-out: IC50 PMNL): 800 nM
CC(C)(C)c1cc(NC(=O)c2cc(-c3ccc4c(c3)OCO4)n(-c3ccc(S(C)(=O)=O)cc3)n2)cc(C(C)(C)C)c1O [5e, N-(3,5-di-tert-butyl-4-hydroxyphenyl)-5-(benzo [1, 3]dioxol-5-yl)-1-(4-methylsulfonylphenyl)-1H-pyrazole-3-carboxamide] | 79.3 | 940 | 640 | IC50 (5-LOX [2]): 169 ± 16 nM
CC(C)(C)c1cc(NC(=O)c2cc(C3CCCCC3)n(-c3ccc(S(C)(=O)=O)cc3)n2)cc(C(C)(C)C)c1O [5j, N-(3,5-di-tert-butyl-4-hydroxyphenyl)-1-(4-methylsulfonylphenyl)-5-cyclo-hexyl-1H-pyrazole-3-carboxamide] | 57.3 |  |  | 
CC(C)Cc1ccc(-c2cc(C(=O)Nc3cc(C(C)(C)C)c(O)c(C(C)(C)C)c3)nn2-c2ccc(S(C)(=O)=O)cc2)cc1 [5d, N-(3,5-di-tert-butyl-4-hydroxyphenyl)-1-(4-methylsulfonylphenyl)-5-p-iso-butylphenyl-1H-pyrazole-3-carboxamide] | 60.2 |  |  | 
CC(C)(C)c1cc(NC(=O)c2cc(C3CCCCC3)n(-c3ccc(S(N)(=O)=O)cc3)n2)cc(C(C)(C)C)c1O [4j, N-(3,5-di-tert-butyl-4-hydroxyphenyl)-1-(4-aminosulfonylphenyl)-5-cyclo-hexyl-1H-pyrazole-3-carboxamide] | 69.2 | 33900 | 1070 | 
CC(C)(C)c1cc(NC(=O)c2cc(-c3ccc4ccccc4c3)n(-c3ccc(S(N)(=O)=O)cc3)n2)cc(C(C)(C)C)c1O [4g, N-(3,5-di-tert-butyl-4-hydroxyphenyl)-1-(4-aminosulfonylphenyl)-5-naphth-2-yl-1H-pyrazole-3-carboxamide] | 66.1 | 2110 | 750 | IC50 (5-LOX [2]): 165 ± 17 nM
Cc1ccc(-c2cc(C(=O)Nc3cc(C(C)(C)C)c(O)c(C(C)(C)C)c3)nn2-c2ccc(F)cc2)cc1 [6b, N-(3,5-di-tert-butyl-4-hydroxyphenyl)-1-(4-fluorophenyl)-5-p-tolyl-1H-pyrazole-3-carboxamide] | 83.7 | 10200 | 820 | IC50 (5-LOX [2]): 327 ± 22 nM
